Measured values taken from patent US20070072181A1 (priority 2003, published 2007).
Like-named read-outs stand apart in the source and are kept apart here.

System: VSV
Format: cell-based

## Cc1ccc(=O)n(-c2ccccc2)c1 [PD, 5-methyl-1-phenyl-2-(1H)-pyridone]
0.001 ng interferon + 3 μg pirfenidone (PD), HeLa, VSV
  Mean (Means for Oneway Anova; antiviral effect): 0.6002
0.001 ng interferon + 30 μg pirfenidone (PD), HeLa, VSV
  Mean (Means for Oneway Anova; antiviral effect): 0.543
0.001 ng interferon + 300 μg pirfenidone (PD), HeLa, VSV
  Mean (Means for Oneway Anova; antiviral effect): 0.3705
0.0049 ng interferon + 3 μg pirfenidone (PD), HeLa, VSV
  Mean (Means for Oneway Anova; antiviral effect): 0.407
0.0049 ng interferon + 30 μg pirfenidone (PD), HeLa, VSV
  Mean (Means for Oneway Anova; antiviral effect): 0.3033
0.0049 ng interferon + 300 μg pirfenidone (PD), HeLa, VSV
  Mean (Means for Oneway Anova; antiviral effect): 0.1915
0.019 ng interferon + 3 μg pirfenidone (PD), HeLa, VSV
  Mean (Means for Oneway Anova; antiviral effect): 0.519
0.019 ng interferon + 30 μg pirfenidone (PD), HeLa, VSV
  Mean (Means for Oneway Anova; antiviral effect): 0.284
0.019 ng interferon + 300 μg pirfenidone (PD), HeLa, VSV
  Mean (Means for Oneway Anova; antiviral effect): 0.1785
0.076 ng interferon + 3 μg pirfenidone (PD), HeLa, VSV
  Mean (Means for Oneway Anova; antiviral effect): 0.68
0.076 ng interferon + 30 μg pirfenidone (PD), HeLa, VSV
  Mean (Means for Oneway Anova; antiviral effect): 0.4505
0.076 ng interferon + 300 μg pirfenidone (PD), HeLa, VSV
  Mean (Means for Oneway Anova; antiviral effect): 0.1938
0.3 ng interferon + 3 μg pirfenidone (PD), HeLa, VSV
  Mean (Means for Oneway Anova; antiviral effect): 0.5563
0.3 ng interferon + 30 μg pirfenidone (PD), HeLa, VSV
  Mean (Means for Oneway Anova; antiviral effect): 0.4298
0.3 ng interferon + 300 μg pirfenidone (PD), HeLa, VSV
  Mean (Means for Oneway Anova; antiviral effect): 0.1948
1.2 ng interferon + 3 μg pirfenidone (PD), HeLa, VSV
  Mean (Means for Oneway Anova; antiviral effect): 0.306
1.2 ng interferon + 30 μg pirfenidone (PD), HeLa, VSV
  Mean (Means for Oneway Anova; antiviral effect): 0.4248
1.2 ng interferon + 300 μg pirfenidone (PD), HeLa, VSV
  Mean (Means for Oneway Anova; antiviral effect): 0.1872
4.8 ng interferon + 3 μg pirfenidone (PD), HeLa, VSV
  Mean (Means for Oneway Anova; antiviral effect): 0.245
4.8 ng interferon + 30 μg pirfenidone (PD), HeLa, VSV
  Mean (Means for Oneway Anova; antiviral effect): 0.3757
4.8 ng interferon + 300 μg pirfenidone (PD), HeLa, VSV
  Mean (Means for Oneway Anova; antiviral effect): 0.325
19 ng interferon + 3 μg pirfenidone (PD), HeLa, VSV
  Mean (Means for Oneway Anova; antiviral effect): 0.979
19 ng interferon + 30 μg pirfenidone (PD), HeLa, VSV
  Mean (Means for Oneway Anova; antiviral effect): 0.2968
19 ng interferon + 300 μg pirfenidone (PD), HeLa, VSV
  Mean (Means for Oneway Anova; antiviral effect): 0.4105
Low doses of Pirfenidone with interferon, HeLa, VSV
  effect on the antiviral effects of interferon: enhance the antiviral effects of interferon
Low doses of pirfenidone in combination therapy with IFN-α
  effect on viral growth in combination with IFN-α: synergistic effect on reducing viral growth
